We go through three compounds from patent US9034887B2, “Dihydroorotate dehydrogenase as antifungal drug target and quinazolinone-based inhibitors thereof” (F2G Limited, priority 2008, dated 2015).

Assay [1] concerns the target T1, Recombinant DHODH from human (Homo sapiens, UniProt Q02127).
T1 construct: His-tag; NusA (Nus-tag) fusion of vector pET43.1 (own knowledge of the vector) (N); made in house; host or cells: E. coli BL21 DE3
Description: DHODH inhibition screen (DCIP reduction, 600 nm), human enzyme. The settings on record: Table 3, read-out: IC50 values for Compound Examples 1 to 15 identified from screens, Human. Type of assay: biochemical. The protocol: (§1) 1. The following buffer and stock solution were prepared:
(§2) Coenzyme Q2 (Sigma) was dissolved in DMSO to give a concentration of 10 mg/ml. […] The stock solution was made with 127.36 μl DHO, 127.36 μl DCIP and 318.4 μl Coenzyme Q2, made up to 80 ml with Buffer A. Final concentrations in assay wells were; DHO, 500 μM; Coenzyme Q, 50 μM; DCIP, 100 μM.
(§3) 2. […] Duplicate sets of plates were used such that one set received enzyme while a control set received no enzyme.
(§4) 3. […] Then 20 μl of DHODH solution was added to all the +enzyme plates and 20 μl of Buffer A was added to all the control −enzyme plates.
(§5) 4. 20 μl of DHO/Coenzyme Q2/DCIP solution was added to all the wells, after which plates were incubated at room temperature for […] and then read on a Tecan Safire spectrophotometer at 600 nm.
(§6) Recombinant DHODH from human or C. albicans was assayed in the same way. It is necessary to adjust the enzyme concentration and reaction time to take into account variations in activity of enzyme batches, thus the incubation time was 20 minutes for the C. albicans enzyme and 34 minutes for the human enzyme.

The target in assay [2] is Recombinant A. fumigatus DHODH (Aspergillus fumigatus, UniProt Q4X169). The experiment in a line: DHODH inhibition screen (DCIP reduction, 600 nm), A. fumigatus enzyme. The assay is classed as biochemical. The protocol:
as §1
Buffer A: 62.5 mM TrisHCl (pH8.0), 150 mM NaCl, 10% v/v glycerol
DHO/Coenzyme Q2/DCIP solution: 19.848 mg dihydroorotate (DHO; Sigma) was dissolved in 160 μl DMSO. Coenzyme Q2 (Sigma) was dissolved in DMSO to give a concentration of 10 mg/ml. 7.236 mg 2,6-dichloroindophenol (DCIP; Sigma) was dissolved in 160 μl DMSO. The stock solution was made with 127.36 μl DHO, 127.36 μl DCIP and 318.4 μl Coenzyme Q2, made up to 80 ml with Buffer A. Final concentrations in assay wells were; DHO, 500 μM; Coenzyme Q, 50 μM; DCIP, 100 μM.
2. Compounds were aliquotted into 384-well microtitre plates at a range of dilutions to give final concentrations in the assay of […]. Duplicate sets of plates were used such that one set received enzyme while a control set received no enzyme. Since compounds are frequently dissolved in DMSO or a DMSO/water mixture, assays were set up to give a final concentration of 1% (v/v) DMSO in wells.
3. Recombinant A. fumigatus DHODH was suspended in Buffer A to give a concentration of 1435.8 ng protein in 20 μl. Then 20 μl of DHODH solution was added to all the +enzyme plates and 20 μl of Buffer A was added to all the control −enzyme plates.
as §5
Recombinant DHODH from human or C. albicans was assayed in the same way. It is necessary to adjust the enzyme concentration and reaction time to take into account variations in activity of enzyme batches, thus the incubation time was 20 minutes for the C. albicans enzyme and 34 minutes for the human enzyme. Compounds are screened against a fungal and human enzyme to identify compounds which are selective for the fungal enzyme.

For assay [3], the system named is Aspergillus flavus. The experiment in a line: MIC in YAG medium, A. flavus. Type of assay: cell-based. The settings on record: 24 hrs at 35° C., >70% growth inhibition, read-out: MIC grade, A. flavus. The protocol: (§7) Between 1 and 5 mgs of compound were accurately weighed out into a sterile Eppendorf tube. The compound was dissolved in DMSO to give a solution containing 5 mg/mL. Tubes were stored at −20° C. until required.
(§8) On the day of testing thawed solutions were vortex mixed to ensure homogeneity. 30 μL of solution was removed and added to 570 μL of sterile water in a separate sterile Eppendorf. The thoroughly mixed solution was used to prepare a series of doubling dilutions in water, in a deep well plate. Thirteen replicate plates were prepared using a Minitrak by aspirating 20 μL from each well into eleven clear polystyrene 96 well plates.
(§9) Spores of Aspergillus spp. (Aspergillus fumigatus [two strains], Aspergillus terreus [two strains], Aspergillus niger and Aspergillus flavus) were harvested from cultures grown on Sabarauds agar for 5 days, and resuspended in PBS/Tween 80 to approx 1×10^7 cfu/mL. Each organism suspension was diluted in YAG medium (1% glucose, 1% ammonium chloride and 0.5% yeast extract) to 0.5-2×10^4 cfu/mL. 80 μL of an organism suspension was added to each well of the plate containing drug dilutions.
(§10) All plates were incubated for 24 hrs at 35° C. Growth was assessed by monitoring the optical density at 485 nm for each well. The MIC of a compound is the lowest drug concentration that inhibits growth of an organism by >70% compared with a drug free control. MICs are recorded as mg/L. In cases where the MIC of an organism is […] the MIC is repeated using a concentration range of 0.5-0.0005 mg/L.

In another assay the test system is Aspergillus fumigatus. The experiment in a line: MIC in YAG medium, A. fumigatus. The assay is classed as cell-based. The settings on record: 24 hrs at 35° C., >70% growth inhibition, read-out: MIC grade, A. fumigatus. The protocol: as §7, §8, §9, §10
A further assay deals with A. fumigatus 210. Description: MIC in YAG medium, A. fumigatus 210. The assay is classed as cell-based. To be noted: Aspergillus fumigatus, 24 hrs at 35° C., >70% growth inhibition, read-out: MIC grade, A. fumigatus 210. The protocol:
as §7, §8, §9, §10

Assay [4] relates to Aspergillus niger. Description: MIC in YAG medium, A. niger. The assay is classed as cell-based. The settings on record: 24 hrs at 35° C., >70% growth inhibition, read-out: MIC grade, A. niger. The protocol:
as §7, §8, §9, §10

The next assay relates to Aspergillus terreus. The experiment in a line: MIC in YAG medium, A. terreus. The settings on record: 24 hrs at 35° C., >70% growth inhibition, read-out: MIC grade, A. terreus. Type of assay: cell-based. The protocol: as §7, §8, §9, §10
A further assay concerns A. terreus 49. Description: MIC in YAG medium, A. terreus 49. The assay is classed as cell-based. The settings on record: Aspergillus terreus, 24 hrs at 35° C., >70% growth inhibition, read-out: MIC grade, A. terreus 49. The protocol: as §7, §8, §9, §10
The test system of assay [5] is Aspergillus flavus. The experiment in a line: MIC in RPMI medium, A. flavus. The assay is classed as cell-based. The settings on record: 24-48 hrs at 35° C., >80% growth inhibition, read-out: MIC grade, A. flavus. The protocol: as §7, §8
(§11) Assays were also performed in RPMI medium. To perform MIC tests in this medium, dilutions of compounds are prepared in microtitre plates as described above. Fungal strains to be tested are grown and harvested in an identical manner to that described above, and each organism suspension was diluted in RPMI medium, containing 2% glucose and 0.135 M MOPS buffer (pH 7.0) to 0.5-2×10^4 cfu/mL, rather than in YAG medium. 80 μL of an organism suspension was added to each well of the plate containing drug dilutions.
(§12) All plates were incubated for 24-48 hrs at 35° C. Growth was assessed by monitoring the optical density at 485 nm for each well. […] The following organisms were tested: Aspergillus flavus, Aspergillus fumigatus AF293 and AF210, Aspergillus niger and Aspergillus terreus AT4 and AT49.

Assay [6] deals with Aspergillus fumigatus AF293. The experiment in a line: MIC in RPMI medium, A. fumigatus. Type of assay: cell-based. To be noted: 24-48 hrs at 35° C., >80% growth inhibition, read-out: MIC grade, A. fumigatus. The protocol:
as §7, §8, §11, §12

For assay [7], the system named is Aspergillus fumigatus AF210. The experiment in a line: MIC in RPMI medium, A. fumigatus 210. The assay is classed as cell-based. The settings on record: 24-48 hrs at 35° C., >80% growth inhibition, read-out: MIC grade, A. fumigatus 210. The protocol:
as §7, §8, §11, §12

Assay [8] relates to Aspergillus niger. Description: MIC in RPMI medium, A. niger. Type of assay: cell-based. To be noted: 24-48 hrs at 35° C., >80% growth inhibition, read-out: MIC grade, A. niger. The protocol:
as §7, §8, §11, §12

A further assay relates to Aspergillus terreus AT4. The experiment in a line: MIC in RPMI medium, A. terreus. The settings on record: 24-48 hrs at 35° C., >80% growth inhibition, read-out: MIC grade, A. terreus. The assay is classed as cell-based. The protocol:
as §7, §8, §11, §12

In another assay the test system is Aspergillus terreus AT49. Description: MIC in RPMI medium, A. terreus 49. The assay is classed as cell-based. The settings on record: 24-48 hrs at 35° C., >80% growth inhibition, read-out: MIC grade, A. terreus 49. The protocol:
as §7, §8, §11, §12

Assay [9] has as its target T2, Recombinant DHODH from C. albicans (Candida albicans, UniProt Q874I4).
T2 construct: His-tag; NusA (Nus-tag) fusion of vector pET43.1 (own knowledge of the vector) (N); made in house; host or cells: E. coli BL21 DE3
T2 sequence (Q874I4 57-444): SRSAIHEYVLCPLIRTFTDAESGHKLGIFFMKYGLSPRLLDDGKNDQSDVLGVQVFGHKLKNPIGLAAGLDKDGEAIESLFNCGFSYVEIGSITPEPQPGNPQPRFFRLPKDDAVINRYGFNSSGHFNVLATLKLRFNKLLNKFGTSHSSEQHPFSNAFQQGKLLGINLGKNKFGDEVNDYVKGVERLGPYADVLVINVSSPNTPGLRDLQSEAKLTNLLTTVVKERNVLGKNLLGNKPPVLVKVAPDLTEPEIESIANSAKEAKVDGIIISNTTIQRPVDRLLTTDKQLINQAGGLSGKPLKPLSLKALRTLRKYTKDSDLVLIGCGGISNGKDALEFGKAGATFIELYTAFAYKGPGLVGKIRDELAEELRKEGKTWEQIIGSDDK
The experiment in a line: DHODH inhibition screen (DCIP reduction, 600 nm), C. albicans enzyme. The assay is classed as biochemical. The protocol: as §1, §2, §3, §4, §5, §6

SMILES strings stand for the structures. In brackets after ≈: the same amount, converted by molar mass.

Recombinant A. fumigatus DHODH, sequence (Q4X169 entry or part of it): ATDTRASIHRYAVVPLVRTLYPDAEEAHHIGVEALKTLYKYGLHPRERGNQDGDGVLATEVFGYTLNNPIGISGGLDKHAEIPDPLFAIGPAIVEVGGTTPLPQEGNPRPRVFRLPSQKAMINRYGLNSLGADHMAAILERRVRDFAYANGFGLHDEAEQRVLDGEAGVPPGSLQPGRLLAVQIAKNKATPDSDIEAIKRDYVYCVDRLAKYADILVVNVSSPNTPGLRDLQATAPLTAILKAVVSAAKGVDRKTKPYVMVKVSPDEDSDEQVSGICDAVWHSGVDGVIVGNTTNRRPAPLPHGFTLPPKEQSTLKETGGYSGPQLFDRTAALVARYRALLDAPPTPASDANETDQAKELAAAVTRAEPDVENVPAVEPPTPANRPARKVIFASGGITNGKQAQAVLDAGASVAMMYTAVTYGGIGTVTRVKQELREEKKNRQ
T1 sequence (Q02127 31-395 limits assumed): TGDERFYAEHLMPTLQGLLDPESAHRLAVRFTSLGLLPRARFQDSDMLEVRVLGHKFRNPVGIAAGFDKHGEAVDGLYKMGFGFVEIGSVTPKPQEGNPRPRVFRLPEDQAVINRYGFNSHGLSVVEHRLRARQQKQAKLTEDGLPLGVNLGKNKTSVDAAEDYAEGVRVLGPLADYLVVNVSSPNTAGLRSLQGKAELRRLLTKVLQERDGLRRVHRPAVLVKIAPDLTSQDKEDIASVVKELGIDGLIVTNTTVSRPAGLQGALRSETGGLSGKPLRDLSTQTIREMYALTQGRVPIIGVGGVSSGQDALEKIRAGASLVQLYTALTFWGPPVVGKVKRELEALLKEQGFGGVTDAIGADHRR

By IC50 is commonly meant the concentration needed to halve the response being measured. Usually MIC stands for the lowest concentration found to suppress growth. `COc1ccc2nc(SC(C)C)n(-c3ccccc3OC)c(=O)c2c1` [Compound Example 10, 2-Isopropylsulfanyl-6-methoxy-3-(2-methoxy-phenyl)-3H-quinazolin-4-one]: the IC50 in assay [1] came out at 50.2 µM; in assay [2], 19.6 µM. In addition, the MIC with Aspergillus flavus [3] was greater than 10 µg/mL; in the assay on Aspergillus fumigatus it was 1 to 10 µg/mL (≈ 2.81 to 28.1 µM); with A. fumigatus 210, 1 to 10 µg/mL (≈ 2.81 to 28.1 µM); in the assay with Aspergillus niger [4], less than 1 µg/mL; with Aspergillus terreus it was 1 to 10 µg/mL (≈ 2.81 to 28.1 µM); in the assay with A. terreus 49, less than 1 µg/mL. In addition, the MIC was greater than 10 µg/mL in the assay on Aspergillus flavus [5]; greater than 10 µg/mL in assay [6]; greater than 10 µg/mL in [7]; 1 to 10 µg/mL (≈ 2.81 to 28.1 µM) with Aspergillus niger [8]; greater than 10 µg/mL in the assay on Aspergillus terreus AT4; greater than 10 µg/mL in the assay with Aspergillus terreus AT49.

As for `CCSc1nc2ccccc2c(=O)n1-c1ccccc1CC` [Compound Example 13, 3-(2-Ethyl-phenyl)-2-ethylsulfanyl-3H-quinazolin-4-one], the concentration for half-maximal inhibition (IC50) in assay [1] turned out to be 86.1 µM; in [2], 36.2 µM. For the same compound, the MIC in the assay with Aspergillus flavus [3] is greater than 10 µg/mL; in the assay with Aspergillus fumigatus, 1 to 10 µg/mL (≈ 3.22 to 32.2 µM); in the assay with A. fumigatus 210, 1 to 10 µg/mL (≈ 3.22 to 32.2 µM); in the assay on Aspergillus niger [4], less than 1 µg/mL; with Aspergillus terreus, 1 to 10 µg/mL (≈ 3.22 to 32.2 µM); in the assay on A. terreus 49, 1 to 10 µg/mL (≈ 3.22 to 32.2 µM). Besides, the minimal inhibitory concentration (MIC) in the assay on Aspergillus flavus [5] is greater than 10 µg/mL; in [6], 1 to 10 µg/mL (≈ 3.22 to 32.2 µM); in assay [7], greater than 10 µg/mL; with Aspergillus niger [8], 1 to 10 µg/mL (≈ 3.22 to 32.2 µM); in the assay with Aspergillus terreus AT4 it was greater than 10 µg/mL; with Aspergillus terreus AT49, greater than 10 µg/mL.

For `Cc1c(-c2ccc(-c3ccccc3F)cc2)nc2ccc(F)cc2c1C(=O)O` [Brequinar, brequinar], the concentration for half-maximal inhibition (IC50) in [9] stood at 143 µM.
